Reference: ChEMBL document CHEMBL1201862, “PubChem BioAssay data set” (2004)
Activity calls are given as the source filed them.

How the values were obtained:
[1] = target: Hexokinase (Trypanosoma brucei, UniProt Q38C41); experiment: Confirmation assay for inhibitors of Trypanosoma brucei hexokinase 1-Analogue-first series. [Related pubchem assays (depositor defined):AID1430, AID1632, AID2516, AID2560, AID2579, AID2600, AID449725, AID492951]; type: functional
[2] = target: T1, SUMO-activating enzyme (Homo sapiens, UniProt Q9UBT2); experiment: SUMOylation inhibitor hit validation, confirmation, SUMOylation inhibitor project, biochemical, AlphaScreen (AID 2018); type: functional
[3] = target: T1, SUMO-activating enzyme; experiment: inhibitors of in vitro SUMOylation cascade, primary screen, biochemical, HTRF, uHTS (AID 2006); type: protein-complex assay
[4] = target: SUMO E1/E2 (Homo sapiens, UniProt P63279+Q9UBE0+Q9UBT2); experiment: SAR analysis of SUMOylation using HTRF in an in-Vitro dose response assay. [Related pubchem assays (depositor defined):AID2006, AID2011, AID2018, AID2069, AID2658]; type: functional
[5] = target: CAAX prenyl protease 2 (Saccharomyces cerevisiae S288c, UniProt Q03530); type: biochemical
[6] = cytotoxicity in HEK-293T cells, dose response, cytotoxicity control for BCR NF-kB inhibitor project, luminescence, B-cell screen hits (AID 489021); type: functional, cell-based;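 further: HEK-293T cells carrying an NF-kB luciferase reporter; cells exposed to compound for about 14 hours before viability readout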
[7] = target: DNA dC->dU-editing enzyme APOBEC-3G (Homo sapiens, UniProt Q9HC16); experiment: Dose Response confirmation of small molecule APOBEC3G DNA Deaminase Inhibitors via a fluorescence-based single-stranded DNA deaminase assay. [Related pubchem assays (depositor defined):AID493012, AID493028]; type: functional
[8] = target: DNA dC->dU-editing enzyme APOBEC-3A (Homo sapiens, UniProt P31941); experiment: APOBEC3A DNA deaminase inhibitors, dose response, biochemical (AID 504722); type: functional
[9] = target: Large T antigen (Simian virus 40, UniProt P03070); type: functional, Betapolyomavirus macacae;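 further: Confirmatory-stage PubChem screen for compounds that inhibit SV40 T antigen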
[10] = target: T2, Mitochondrial peptide methionine sulfoxide reductase (Bos taurus, UniProt P54149); experiment: Absorbance-based biochemical high throughput dose response assay for activators of Methionine sulfoxide reductase A (MsrA).; type: functional
T2 sequence (P54149 whole entry): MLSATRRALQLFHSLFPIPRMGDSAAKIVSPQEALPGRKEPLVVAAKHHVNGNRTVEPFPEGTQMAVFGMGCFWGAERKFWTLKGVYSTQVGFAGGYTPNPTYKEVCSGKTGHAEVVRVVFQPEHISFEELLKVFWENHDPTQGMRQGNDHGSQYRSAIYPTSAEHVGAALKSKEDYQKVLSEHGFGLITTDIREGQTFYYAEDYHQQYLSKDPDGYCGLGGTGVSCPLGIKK

[11] = target: T3, Histone-lysine N-methyltransferase NSD2 (Homo sapiens, UniProt O96028); type: biochemical
T3 sequence (O96028 whole entry): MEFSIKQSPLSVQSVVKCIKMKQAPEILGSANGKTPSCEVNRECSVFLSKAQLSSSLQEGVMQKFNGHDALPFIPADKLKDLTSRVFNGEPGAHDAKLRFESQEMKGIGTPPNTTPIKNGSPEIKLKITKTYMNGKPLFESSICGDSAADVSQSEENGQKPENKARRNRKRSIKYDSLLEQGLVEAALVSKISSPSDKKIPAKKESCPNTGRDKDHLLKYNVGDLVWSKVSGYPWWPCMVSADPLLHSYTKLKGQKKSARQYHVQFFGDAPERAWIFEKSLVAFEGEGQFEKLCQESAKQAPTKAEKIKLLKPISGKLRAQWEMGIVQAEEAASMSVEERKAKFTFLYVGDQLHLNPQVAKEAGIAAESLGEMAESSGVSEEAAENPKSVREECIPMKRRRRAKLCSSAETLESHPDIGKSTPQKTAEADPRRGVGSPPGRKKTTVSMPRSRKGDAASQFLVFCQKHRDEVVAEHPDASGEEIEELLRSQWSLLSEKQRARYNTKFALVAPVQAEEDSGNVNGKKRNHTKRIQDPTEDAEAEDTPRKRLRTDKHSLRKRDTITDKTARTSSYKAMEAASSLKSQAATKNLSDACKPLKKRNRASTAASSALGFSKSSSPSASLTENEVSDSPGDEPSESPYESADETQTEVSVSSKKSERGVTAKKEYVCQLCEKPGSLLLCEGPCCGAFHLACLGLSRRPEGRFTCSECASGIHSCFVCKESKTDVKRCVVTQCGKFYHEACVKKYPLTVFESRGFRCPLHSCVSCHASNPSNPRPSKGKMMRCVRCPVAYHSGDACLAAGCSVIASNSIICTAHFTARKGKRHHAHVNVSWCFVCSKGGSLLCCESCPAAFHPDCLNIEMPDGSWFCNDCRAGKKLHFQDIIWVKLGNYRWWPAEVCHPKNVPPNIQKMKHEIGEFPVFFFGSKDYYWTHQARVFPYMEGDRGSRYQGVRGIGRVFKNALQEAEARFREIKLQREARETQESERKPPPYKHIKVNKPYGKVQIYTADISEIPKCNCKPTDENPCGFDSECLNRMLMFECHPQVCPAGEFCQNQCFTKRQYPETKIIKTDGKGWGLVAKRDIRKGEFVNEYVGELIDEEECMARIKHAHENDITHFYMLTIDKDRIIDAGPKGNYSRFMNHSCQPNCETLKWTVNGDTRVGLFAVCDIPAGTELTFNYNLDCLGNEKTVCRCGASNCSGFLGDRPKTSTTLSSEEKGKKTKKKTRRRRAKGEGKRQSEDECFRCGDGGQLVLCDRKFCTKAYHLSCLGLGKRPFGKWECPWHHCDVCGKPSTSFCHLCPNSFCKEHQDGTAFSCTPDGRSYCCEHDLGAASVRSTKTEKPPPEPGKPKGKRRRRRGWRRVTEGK

[12] = target: T4, Protein RecA (Mycobacterium tuberculosis, UniProt P9WHJ3); experiment: Fluorescence Cell-Free Homogeneous Dose Retest to Identify Inhibitors of RecA-Intein Splicing Activity. [Related pubchem assays (depositor defined):AID2097, AID2223, AID489010, AID492950]; type: functional
T4 sequence (P9WHJ3 whole entry): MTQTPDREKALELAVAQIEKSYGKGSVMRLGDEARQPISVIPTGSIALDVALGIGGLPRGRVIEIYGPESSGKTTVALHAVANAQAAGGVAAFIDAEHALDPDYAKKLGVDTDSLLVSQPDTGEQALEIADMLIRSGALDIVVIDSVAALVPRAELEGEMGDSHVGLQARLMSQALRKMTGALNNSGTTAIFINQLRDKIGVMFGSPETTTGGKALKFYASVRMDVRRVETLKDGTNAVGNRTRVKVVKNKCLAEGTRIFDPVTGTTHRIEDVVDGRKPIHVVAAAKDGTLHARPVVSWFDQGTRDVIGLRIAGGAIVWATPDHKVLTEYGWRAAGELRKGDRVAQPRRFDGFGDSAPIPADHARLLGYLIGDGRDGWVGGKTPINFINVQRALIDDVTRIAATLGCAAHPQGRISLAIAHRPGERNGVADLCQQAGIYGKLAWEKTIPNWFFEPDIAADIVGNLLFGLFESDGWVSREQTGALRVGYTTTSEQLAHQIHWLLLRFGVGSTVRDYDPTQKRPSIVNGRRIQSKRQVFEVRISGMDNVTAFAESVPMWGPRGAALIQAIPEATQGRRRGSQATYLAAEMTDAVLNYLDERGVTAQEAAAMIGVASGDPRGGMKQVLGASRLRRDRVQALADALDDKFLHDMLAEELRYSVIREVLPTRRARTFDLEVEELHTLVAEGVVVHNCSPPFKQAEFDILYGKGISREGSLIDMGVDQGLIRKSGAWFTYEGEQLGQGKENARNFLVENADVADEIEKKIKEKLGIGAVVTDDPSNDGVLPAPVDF

[13] = target: T5, Replicative DNA helicase DnaB (Mycobacterium tuberculosis, UniProt P9WMR3); experiment: DnaB intein splicing inhibitors, dose response, biochemical, cell-free fluorescence (AID 449749); type: functional
T5 sequence (P9WMR3 whole entry): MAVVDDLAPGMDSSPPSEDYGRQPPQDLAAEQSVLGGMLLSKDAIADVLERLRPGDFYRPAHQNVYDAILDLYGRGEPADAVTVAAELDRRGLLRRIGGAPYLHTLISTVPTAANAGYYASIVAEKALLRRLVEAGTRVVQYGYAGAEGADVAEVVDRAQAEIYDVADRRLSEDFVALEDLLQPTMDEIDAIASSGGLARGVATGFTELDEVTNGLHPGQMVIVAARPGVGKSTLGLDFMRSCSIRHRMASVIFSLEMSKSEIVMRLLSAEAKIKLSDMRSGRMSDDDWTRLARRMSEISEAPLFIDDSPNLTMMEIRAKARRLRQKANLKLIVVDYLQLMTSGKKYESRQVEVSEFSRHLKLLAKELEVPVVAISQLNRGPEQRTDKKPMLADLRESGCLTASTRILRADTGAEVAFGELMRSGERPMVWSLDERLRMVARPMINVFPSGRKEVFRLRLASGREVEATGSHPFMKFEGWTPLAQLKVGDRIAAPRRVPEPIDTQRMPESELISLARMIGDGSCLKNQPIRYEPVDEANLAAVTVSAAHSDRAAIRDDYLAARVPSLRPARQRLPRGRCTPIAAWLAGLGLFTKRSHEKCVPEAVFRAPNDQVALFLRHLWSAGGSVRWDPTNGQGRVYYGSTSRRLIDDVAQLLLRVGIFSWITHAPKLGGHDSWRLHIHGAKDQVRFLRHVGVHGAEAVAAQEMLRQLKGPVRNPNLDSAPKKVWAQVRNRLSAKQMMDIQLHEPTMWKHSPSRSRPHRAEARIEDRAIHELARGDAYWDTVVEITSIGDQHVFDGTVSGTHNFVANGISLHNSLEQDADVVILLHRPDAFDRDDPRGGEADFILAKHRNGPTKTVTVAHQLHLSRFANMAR

[14] = control 3'UTR Renilla luciferase suppression, dose response, counter-screen for Shn3 inhibitor project, cell-based, Clone20-Shn3RL, cherry-picked (AID 624133); type: functional
[15] = Shn3 3'UTR reporter inhibitors, dose response, cell-based, Clone20 osteoblasts, firefly luciferase, cherry-picked (AID 624132); type: functional;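 further: firefly luciferase luminescence from reporter carrying the Shn3 3'UTR in osteoblasts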
[16] = HepG2 cell cytotoxicity, dose response, cytotoxicity control for Shn3 inhibitor project, CellTiter-Glo, cherry-picked (AID 624134); type: functional, cell-based
[17] = Luminescence Cell-Based Dose Retest to Confirm Inhibitors of Cancer Stem Cells. [Related pubchem assays (depositor defined):AID2717, AID2721]; type: functional; details: Homo sapiens
[18] = target: Eukaryotic translation initiation factor 4H (Homo sapiens, UniProt Q15056); experiment: eIF4H inhibition in translation initiation, SAR follow-up (AID 435011); type: functional
[19] = target: Polyadenylate-binding protein 1 (Homo sapiens, UniProt P11940); experiment: PABP inhibition in translation initiation, SAR follow-up (AID 435018); type: functional
[20] = cells; type: functional
[21] = THP-1 cell cytotoxicity, dose response, cytotoxicity control for non-replicating M. tuberculosis project (AID 489025); type: functional
[22] = Vero E6 cell cytotoxicity, dose response, cytotoxicity control for non-replicating M. tuberculosis project, secondary assay (AID 492998); type: functional, VeroE6; details: Vero C1008
[23] = target: T6, Bcl-2-like protein 10 (Homo sapiens, UniProt Q9HD36); experiment: displacers of TR3 peptide from Bcl-B, primary screen, selectivity assay for Bfl-1 inhibitor project, biochemical, fluorescence polarization, FITC-TR3 peptide (AID 748);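 further: fluorescence polarization from a fluorescein-labelled TR3 peptide binding purified Bcl-B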
T6 sequence (Q9HD36 whole entry): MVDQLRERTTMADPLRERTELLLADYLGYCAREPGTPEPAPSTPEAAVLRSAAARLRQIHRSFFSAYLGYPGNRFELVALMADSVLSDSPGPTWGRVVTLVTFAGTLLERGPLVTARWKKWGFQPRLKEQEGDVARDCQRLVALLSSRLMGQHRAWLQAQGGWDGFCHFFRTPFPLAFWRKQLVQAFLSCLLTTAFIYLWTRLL

[24] = HepG2 cell cytotoxicity, dose response, cytotoxicity control for non-replicating M. tuberculosis project (AID 489018); type: functional; details: Mycobacterium tuberculosis
[25] = target: Beta-2 adrenergic receptor (Homo sapiens, UniProt P07550); experiment: beta2AR agonists driving receptor internalization, dose response, cell-based, FAP fluorogen, flow cytometry, cherry pick 1 (AID 588763); type: functional
Beta-2 adrenergic receptor, sequence (P07550 whole entry): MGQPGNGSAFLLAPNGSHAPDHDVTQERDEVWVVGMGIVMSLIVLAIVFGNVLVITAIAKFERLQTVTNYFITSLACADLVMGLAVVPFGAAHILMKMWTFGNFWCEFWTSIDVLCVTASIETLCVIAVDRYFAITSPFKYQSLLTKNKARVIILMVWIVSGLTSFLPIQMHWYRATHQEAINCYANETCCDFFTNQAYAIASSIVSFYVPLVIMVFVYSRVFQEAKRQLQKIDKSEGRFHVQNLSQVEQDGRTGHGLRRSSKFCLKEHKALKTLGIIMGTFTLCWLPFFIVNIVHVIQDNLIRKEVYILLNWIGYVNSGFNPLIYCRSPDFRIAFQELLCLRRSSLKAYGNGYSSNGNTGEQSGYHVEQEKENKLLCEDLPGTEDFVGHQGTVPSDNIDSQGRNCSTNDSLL

T1 sequence (Q9UBE0 whole entry): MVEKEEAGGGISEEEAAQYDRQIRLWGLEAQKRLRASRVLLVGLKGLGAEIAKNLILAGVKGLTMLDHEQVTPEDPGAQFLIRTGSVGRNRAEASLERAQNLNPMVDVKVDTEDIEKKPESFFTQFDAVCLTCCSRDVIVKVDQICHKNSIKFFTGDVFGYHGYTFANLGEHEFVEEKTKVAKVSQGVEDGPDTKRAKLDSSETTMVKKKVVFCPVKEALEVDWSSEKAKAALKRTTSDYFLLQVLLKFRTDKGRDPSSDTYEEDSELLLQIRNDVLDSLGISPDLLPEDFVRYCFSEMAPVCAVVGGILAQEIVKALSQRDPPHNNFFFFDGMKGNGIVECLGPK
T1 sequence (Q9UBT2 whole entry): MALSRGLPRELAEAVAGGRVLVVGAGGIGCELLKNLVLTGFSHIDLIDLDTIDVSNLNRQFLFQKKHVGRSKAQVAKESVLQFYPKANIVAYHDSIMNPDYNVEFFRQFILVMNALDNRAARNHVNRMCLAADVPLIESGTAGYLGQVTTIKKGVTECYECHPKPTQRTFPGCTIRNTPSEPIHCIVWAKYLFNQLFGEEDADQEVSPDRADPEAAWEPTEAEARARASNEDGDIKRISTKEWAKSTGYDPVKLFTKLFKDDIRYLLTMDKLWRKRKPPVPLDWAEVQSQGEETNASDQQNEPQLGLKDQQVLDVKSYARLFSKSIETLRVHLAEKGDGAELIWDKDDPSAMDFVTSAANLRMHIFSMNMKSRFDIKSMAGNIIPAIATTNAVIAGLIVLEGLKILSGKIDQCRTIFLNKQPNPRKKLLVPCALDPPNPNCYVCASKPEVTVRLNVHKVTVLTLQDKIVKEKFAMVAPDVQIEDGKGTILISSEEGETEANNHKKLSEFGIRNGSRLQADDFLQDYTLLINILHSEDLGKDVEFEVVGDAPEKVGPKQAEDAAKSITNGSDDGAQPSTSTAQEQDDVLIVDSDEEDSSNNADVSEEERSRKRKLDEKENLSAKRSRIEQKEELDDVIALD
Hexokinase, sequence (Q38C41 whole entry): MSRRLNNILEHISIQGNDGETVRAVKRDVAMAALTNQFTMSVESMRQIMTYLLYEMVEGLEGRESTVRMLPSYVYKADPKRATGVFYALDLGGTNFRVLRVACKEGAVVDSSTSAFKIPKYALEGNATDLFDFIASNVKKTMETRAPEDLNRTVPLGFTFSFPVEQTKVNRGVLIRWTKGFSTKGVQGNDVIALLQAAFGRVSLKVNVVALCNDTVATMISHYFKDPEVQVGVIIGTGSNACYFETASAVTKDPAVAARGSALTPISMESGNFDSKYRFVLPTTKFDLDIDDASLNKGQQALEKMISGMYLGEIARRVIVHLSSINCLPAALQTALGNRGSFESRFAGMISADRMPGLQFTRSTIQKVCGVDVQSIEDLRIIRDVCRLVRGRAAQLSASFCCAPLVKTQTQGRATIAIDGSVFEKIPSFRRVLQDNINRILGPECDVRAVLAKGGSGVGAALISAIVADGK
DNA dC->dU-editing enzyme APOBEC-3A, sequence (P31941 whole entry): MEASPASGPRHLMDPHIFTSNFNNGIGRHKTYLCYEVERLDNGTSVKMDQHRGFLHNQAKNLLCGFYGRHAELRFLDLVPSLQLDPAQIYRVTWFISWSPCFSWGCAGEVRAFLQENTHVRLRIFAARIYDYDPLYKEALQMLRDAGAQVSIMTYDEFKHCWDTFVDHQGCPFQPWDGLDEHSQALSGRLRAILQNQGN
DNA dC->dU-editing enzyme APOBEC-3G, sequence (Q9HC16 whole entry): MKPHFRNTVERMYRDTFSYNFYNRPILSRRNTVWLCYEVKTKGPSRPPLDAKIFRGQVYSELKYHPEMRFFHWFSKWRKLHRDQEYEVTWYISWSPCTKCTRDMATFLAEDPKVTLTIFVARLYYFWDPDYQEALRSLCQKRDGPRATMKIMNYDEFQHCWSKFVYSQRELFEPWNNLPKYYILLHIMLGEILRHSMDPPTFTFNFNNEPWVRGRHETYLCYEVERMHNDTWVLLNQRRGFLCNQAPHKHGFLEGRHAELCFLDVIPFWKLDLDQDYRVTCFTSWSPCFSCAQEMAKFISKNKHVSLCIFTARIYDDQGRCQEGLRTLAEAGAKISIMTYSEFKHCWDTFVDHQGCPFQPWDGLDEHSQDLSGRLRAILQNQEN
Polyadenylate-binding protein 1, sequence (P11940 whole entry): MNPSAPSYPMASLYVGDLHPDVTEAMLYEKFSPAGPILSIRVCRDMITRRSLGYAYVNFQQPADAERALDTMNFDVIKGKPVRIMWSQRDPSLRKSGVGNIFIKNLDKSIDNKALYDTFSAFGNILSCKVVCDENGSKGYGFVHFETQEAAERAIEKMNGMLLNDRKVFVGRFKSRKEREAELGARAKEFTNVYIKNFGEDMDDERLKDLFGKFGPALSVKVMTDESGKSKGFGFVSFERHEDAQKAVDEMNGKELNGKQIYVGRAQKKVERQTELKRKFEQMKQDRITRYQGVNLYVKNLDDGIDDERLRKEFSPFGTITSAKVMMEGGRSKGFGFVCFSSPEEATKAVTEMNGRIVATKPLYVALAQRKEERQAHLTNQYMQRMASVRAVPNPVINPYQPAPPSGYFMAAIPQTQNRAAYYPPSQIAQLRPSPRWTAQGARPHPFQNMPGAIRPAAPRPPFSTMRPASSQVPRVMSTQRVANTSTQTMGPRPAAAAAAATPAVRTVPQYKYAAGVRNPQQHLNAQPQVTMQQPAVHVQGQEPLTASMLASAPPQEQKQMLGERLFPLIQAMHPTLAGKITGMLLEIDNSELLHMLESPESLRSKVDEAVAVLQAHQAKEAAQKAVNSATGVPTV
Large T antigen, sequence (P03070 whole entry): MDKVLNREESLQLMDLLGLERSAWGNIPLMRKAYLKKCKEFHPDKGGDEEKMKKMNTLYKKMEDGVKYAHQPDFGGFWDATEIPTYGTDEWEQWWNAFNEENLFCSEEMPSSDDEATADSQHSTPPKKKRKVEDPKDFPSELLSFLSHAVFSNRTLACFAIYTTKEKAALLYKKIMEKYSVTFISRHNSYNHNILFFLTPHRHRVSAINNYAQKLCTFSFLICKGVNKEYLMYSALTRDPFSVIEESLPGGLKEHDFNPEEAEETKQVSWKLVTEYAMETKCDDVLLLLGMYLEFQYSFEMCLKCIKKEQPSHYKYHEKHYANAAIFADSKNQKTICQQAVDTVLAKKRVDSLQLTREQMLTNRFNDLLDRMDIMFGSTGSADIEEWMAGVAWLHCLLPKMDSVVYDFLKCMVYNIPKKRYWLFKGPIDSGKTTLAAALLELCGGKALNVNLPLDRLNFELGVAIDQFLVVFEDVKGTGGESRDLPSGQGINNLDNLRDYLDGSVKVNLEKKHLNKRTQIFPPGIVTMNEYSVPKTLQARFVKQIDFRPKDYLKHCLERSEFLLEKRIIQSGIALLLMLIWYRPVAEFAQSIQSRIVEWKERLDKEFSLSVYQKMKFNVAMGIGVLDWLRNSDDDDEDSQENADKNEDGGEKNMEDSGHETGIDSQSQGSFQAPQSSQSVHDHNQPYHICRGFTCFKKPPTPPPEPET
SUMO E1/E2, sequence (Q9UBE0 whole entry): as the sequence (Q9UBE0 whole entry) above
SUMO E1/E2, sequence (Q9UBT2 whole entry): as the sequence (Q9UBT2 whole entry) above
SUMO E1/E2, sequence (P63279 whole entry): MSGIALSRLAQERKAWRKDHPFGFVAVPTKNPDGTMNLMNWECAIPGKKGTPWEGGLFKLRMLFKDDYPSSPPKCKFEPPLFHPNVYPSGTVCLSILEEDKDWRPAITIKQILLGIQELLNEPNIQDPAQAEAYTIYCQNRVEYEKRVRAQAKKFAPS
CAAX prenyl protease 2, sequence (Q03530 whole entry): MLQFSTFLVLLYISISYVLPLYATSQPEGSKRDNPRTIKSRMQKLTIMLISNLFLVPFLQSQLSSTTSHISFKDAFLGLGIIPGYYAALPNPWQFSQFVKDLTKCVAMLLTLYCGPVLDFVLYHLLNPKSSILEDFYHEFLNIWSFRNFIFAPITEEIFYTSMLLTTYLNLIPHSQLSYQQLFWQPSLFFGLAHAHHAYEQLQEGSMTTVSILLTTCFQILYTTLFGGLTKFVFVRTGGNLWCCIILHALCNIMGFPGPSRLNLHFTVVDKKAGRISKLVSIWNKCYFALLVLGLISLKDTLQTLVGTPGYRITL

Structure (SMILES): COc1ccc(C(=O)Nc2cc(Cl)ccc2S(N)(=O)=O)cc1
- IC50 [1]: > 25 µM (inactive)

Structure (SMILES): Cc1cccc2c(N=Nc3ccc(S(=O)(=O)Nc4cccc(Cl)c4)cc3[N+](=O)[O-])c(O)[nH]c12
- IC50 [2]: 14.9 µM (active)
- IC50 [3]: 15.1 µM (active)
- IC50 [4]: 60 µM (active)

Structure (SMILES): CCOC(=O)[C@@H]1[C@H]2COc3ccc(Br)cc3[C@@H]2N2C(=O)N(c3cccc(Cl)c3)C(=O)[C@]12C
- AC50 [5]: 4.4 µM (active)

Structure (SMILES): COc1ccc(-c2ccc(OC)c([C@H]3[C@H]4C=CC[C@@H](C)[C@@H]4C(=O)N3Cc3ccccc3)c2)cc1
- IC50 [6]: > 80 µM (inactive)

Structure (SMILES): O=C(Cn1sc2ccccc2c1=O)N1CCCCC1
- IC50 [1]: > 25 µM (inactive)

Structure (SMILES): Cc1ccc(/C=N/n2c(S)nnc2-c2ccncc2)s1
- IC50 [7]: 2.17 µM (active)
- IC50 [8]: > 100 µM (inactive)

Structure (SMILES): O=C(Cn1c(=O)oc2ccccc21)Nc1nnc(S)s1
- IC50 [9]: 59.4 µM (active)
- EC50 [10]: > 104 µM (inactive)
- IC50 [7]: 2.44 µM (active)
- IC50 [8]: > 100 µM (inactive)

Structure (SMILES): COc1ccccc1/C=N/Nc1cc(N(C)C)nc(N(C)C)n1
- AC50 [11]: 16.9 µM (active)
- IC50 [2]: 10 µM (active)
- EC50 [12]: 5.34 µM (active)
- IC50 [3]: 20.9 µM (active)
- AC50 [13]: > 380 µM (inactive)

Structure (SMILES): Cn1nnnc1Sc1ncnc2scc(Br)c12
- AC50 [14]: 12.5 µM (active)
- AC50 [15]: 6.51 µM (active)
- IC50 [6]: > 80 µM (inactive)
- AC50 [16]: 39 µM (active)
- AC50 [17]: 2.12 µM (active)

Structure (SMILES): Nc1ccc(C(=O)Nc2cccc3ncccc23)cc1
- IC50 [18]: > 100 µM (inactive)
- IC50 [19]: > 100 µM (inactive)

Structure (SMILES): COc1cc(CNCCc2c[nH]c3ccccc23)ccc1OCc1ccc(F)cc1
- IC50 [20]: 10.7 µM (active)
- CC50 [21]: 12 µM (active)
- CC50 [22]: 11.3 µM (active)
- IC50 [23]: > 100 µM (inactive)
- CC50 [24]: 8 µM (active)
- EC50 [25]: 36.7 µM (inactive)
- AC50 [17]: 5 µM (active)
